Read-outs that look alike come from different tables or passages of the source.
Key:
[1] = system: non-expressing oocytes; assay: cells; assay type: cell-based, Xenopus laevis; conditions: Xenopus laevis, total [3H]CQ transport; for inhibition at 500 µM: [test solute] = 0.5 mM; for inhibition at 1000 µM: [test solute] = 1 mM; for inhibition at 2000 µM: [test solute] = 2 mM
How it was run: (§1)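 ND96, pH 5.5, 1.5 h, 27.5 °C; uptake direction acidic outside → oocyte cytosol, mimicking efflux from digestive vacuole. Ice-cold wash stop, 10% SDS lysis, scintillation counting. Ten oocytes/treatment, ≥4 independent experiments.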

[2] = biological target: T1, PfCRT^3D7 (Plasmodium falciparum, UniProt Q8IBZ9); assay: cell-based; assay type: cell-based; conditions: total [3H]CQ transport; for inhibition at 500 µM: [test solute] = 0.5 mM; for inhibition at 1000 µM: [test solute] = 1 mM; for inhibition at 2000 µM: [test solute] = 2 mM
How it was run: as §1

[3] = biological target: T2, PfCRT^Dd2 (Plasmodium falciparum, UniProt Q9N623, A220S/I356T/K76T/M74I/N326S/N75E/Q271E/R371I); assay: [3H]CQ uptake into Xenopus oocytes, cis-inhibition by unlabelled solute; assay type: cell-based
How it was run: as §1

[4] = biological target: T3, PfCRT^Ecu1110 (Plasmodium falciparum, UniProt Q9N623, A220S/I356L/K76T/N326D); assay: as above; assay type: cell-based
How it was run: as §1

[5] = system: non-expressing oocytes; assay type: cell-based, Xenopus laevis; conditions: total [3H]CQ transport; for Uptake of [3H]CQ (% non-expressing oocyte control), trans-stimulation: non-expressing oocytes, normalised to the oocyte type control; for Uptake of [3H]CQ (% PfCRTDd2 control), trans-stimulation, non-expressing oocytes: mean ± SEM, SEM
How it was run: (§2)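 Oocytes (ten per treatment, ≥4 independent frogs/days) were preloaded by injecting VF-6 in 25 nL ND96 at pH 5.0, 5.5, 6.0 or 7.0, or Na^+-free choline buffer, then uptake run 1.5 h, 27.5 °C, ND96 pH 5.5 by default. Internal concentrations assumed ~400 nL oocyte volume.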

[6] = biological target: T1, PfCRT^3D7; assay: cell-based; assay type: cell-based
How it was run: as §2

[7] = biological target: T2, PfCRT^Dd2; assay: cell-based; assay type: cell-based; conditions: […]; for activity at 45000 µM: [test solute]i = 45 mM (30 mM for some solutes due to solubility)
How it was run: as §2

[8] = biological target: T3, PfCRT^Ecu1110; assay: cell-based; assay type: cell-based; conditions: […]
How it was run: as §2

[9] = biological target: T4, PfNT1 (Plasmodium falciparum, UniProt Q8IDM6); assay: cell-based; assay type: cell-based; conditions: for activity at 5000 µM: total [3H]CQ transport
T4 construct: expressed in transfected cells; host or cells: Xenopus laevis oocytes (stage V-VI), cRNA-injected
How it was run: as §2

[10] = system: PfCRT; assay: Influx of VF-6 via PfCRT into the oocyte, solutes tested as potential co-substrates; assay type: cell-based, Plasmodium falciparum; parameters: key: X: Compounds that have been tested as potential co-substrates but are not required for influx of VF-6 via PfCRT into the oocyte; conditions: X marks the solute
[11] = system: PfCRT; assay: Test of solutes as potential co-substrates for influx of VF-6 via PfCRT into the oocyte; assay type: cell-based, Plasmodium falciparum; parameters: key: X: Compounds that have been tested as potential co-substrates but are not required for influx of VF-6 via PfCRT into the oocyte; conditions: X = tested
[12] = Oocyte, mean ± SEM, SEM, read-out: Uptake of [3H]CQ (% PfCRTDd2 control), cis-inhibition, non-expressing oocytes
[13] = non-expressing oocytes, normalised to the oocyte type control, read-out: Uptake of [3H]CQ (% non-expressing oocyte control), cis-inhibition
[14] = PfCRT3D7 oocytes, normalised to the oocyte type control, read-out: Uptake of [3H]CQ (% PfCRT3D7 control), cis-inhibition
[15] = mean ± SEM, SEM, read-out: Uptake of [3H]CQ (% PfCRTDd2 control), cis-inhibition, PfCRT3D7
[16] = read-out: PfCRT-mediated [3H]CQ transport, cis-inhibition (% PfCRTDd2 control)
[17] = read-out: Uptake of [3H]CQ (% PfCRTDd2 control), cis-inhibition
[18] = read-out: Uptake of [3H]CQ (% PfCRTDd2 control), cis-inhibition, PfCRTDd2, SEM
[19] = read-out: [3H]CQ transport (% PfCRTDd2 control), cis-inhibition, PfCRTDd2, SEM
[20] = read-out: PfCRT-mediated [3H]CQ transport, cis-inhibition (% PfCRTEcu1110 control)
[21] = read-out: Uptake of [3H]CQ (% PfCRTDd2 control), cis-inhibition, PfCRTEcu1110, SEM
[22] = read-out: Uptake of [3H]CQ (% PfCRTEcu1110 control), cis-inhibition
[23] = read-out: [3H]CQ transport (% PfCRTEcu1110 control), cis-inhibition, PfCRTEcu1110, SEM

T1 sequence (Q8IBZ9 59-398): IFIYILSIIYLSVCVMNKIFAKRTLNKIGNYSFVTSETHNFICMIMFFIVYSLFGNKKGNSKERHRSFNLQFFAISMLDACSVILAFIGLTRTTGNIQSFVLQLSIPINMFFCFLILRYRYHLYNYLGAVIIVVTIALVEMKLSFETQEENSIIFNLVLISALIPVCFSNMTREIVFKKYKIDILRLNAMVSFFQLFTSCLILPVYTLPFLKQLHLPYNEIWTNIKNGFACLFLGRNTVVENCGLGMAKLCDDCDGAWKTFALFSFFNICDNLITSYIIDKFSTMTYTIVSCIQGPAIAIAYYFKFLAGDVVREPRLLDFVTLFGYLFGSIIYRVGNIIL
T3 sequence (Q9N623 whole entry A220S/I356L/K76T/N326D): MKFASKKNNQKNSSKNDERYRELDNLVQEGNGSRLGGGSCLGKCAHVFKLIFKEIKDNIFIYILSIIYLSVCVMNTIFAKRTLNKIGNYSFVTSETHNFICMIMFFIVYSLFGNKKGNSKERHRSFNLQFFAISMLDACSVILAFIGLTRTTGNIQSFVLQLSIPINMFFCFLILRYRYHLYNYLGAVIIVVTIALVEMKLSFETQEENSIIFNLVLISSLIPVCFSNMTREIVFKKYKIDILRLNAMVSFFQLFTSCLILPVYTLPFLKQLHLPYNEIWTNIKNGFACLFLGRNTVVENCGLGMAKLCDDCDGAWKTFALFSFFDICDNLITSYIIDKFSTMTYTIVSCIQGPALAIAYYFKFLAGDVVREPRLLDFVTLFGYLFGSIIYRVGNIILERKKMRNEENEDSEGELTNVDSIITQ
T2 sequence (Q9N623 whole entry A220S/I356T/K76T/M74I/N326S/N75E/Q271E/R371I): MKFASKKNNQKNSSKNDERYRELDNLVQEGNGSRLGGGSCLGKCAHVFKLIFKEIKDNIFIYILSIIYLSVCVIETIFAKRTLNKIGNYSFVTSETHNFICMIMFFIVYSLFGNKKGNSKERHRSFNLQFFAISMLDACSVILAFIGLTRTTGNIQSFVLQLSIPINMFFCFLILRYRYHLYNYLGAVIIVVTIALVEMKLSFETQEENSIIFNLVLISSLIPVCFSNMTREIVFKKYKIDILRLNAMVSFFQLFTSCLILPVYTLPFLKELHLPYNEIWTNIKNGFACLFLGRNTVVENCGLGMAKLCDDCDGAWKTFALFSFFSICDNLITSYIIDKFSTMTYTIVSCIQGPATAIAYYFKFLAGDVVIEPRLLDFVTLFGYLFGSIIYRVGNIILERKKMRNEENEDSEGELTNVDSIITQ
T4 sequence (Q8IDM6 whole entry): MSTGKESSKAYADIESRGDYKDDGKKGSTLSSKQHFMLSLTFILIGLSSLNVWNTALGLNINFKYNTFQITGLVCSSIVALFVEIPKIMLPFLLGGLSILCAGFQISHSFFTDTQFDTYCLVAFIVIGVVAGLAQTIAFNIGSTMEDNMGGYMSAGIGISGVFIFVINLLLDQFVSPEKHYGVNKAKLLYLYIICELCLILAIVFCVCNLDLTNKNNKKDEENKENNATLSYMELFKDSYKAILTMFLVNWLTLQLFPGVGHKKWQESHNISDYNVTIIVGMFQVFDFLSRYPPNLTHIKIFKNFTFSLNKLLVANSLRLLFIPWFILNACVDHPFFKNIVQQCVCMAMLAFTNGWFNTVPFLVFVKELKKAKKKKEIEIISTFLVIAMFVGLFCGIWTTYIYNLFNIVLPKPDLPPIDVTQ

NC(=O)CC[C@H](N)C(=O)O [L-glutamine]
inhibition at 500 µM [1, 12]: 3.2 ± 0.07%
inhibition at 1000 µM [1, 12]: 2.7 ± 0.05%
inhibition at 2000 µM [1, 12]: 2.2 ± 0.03%
inhibition at 500 µM [1, 13]: 99 ± 3.2%
inhibition at 1000 µM [1, 13]: 100 ± 6.3%
inhibition at 2000 µM [1, 13]: 98 ± 3.5%
inhibition at 500 µM [2, 14]: 101 ± 4.8%
inhibition at 1000 µM [2, 14]: 99 ± 3.6%
inhibition at 2000 µM [2, 14]: 99 ± 4.7%
inhibition at 500 µM [2, 15]: 2.6 ± 0.04%
inhibition at 1000 µM [2, 15]: 2.1 ± 0.01%
inhibition at 2000 µM [2, 15]: 2.6 ± 0.04%
inhibition at 500 µM [3, 16]: 98 ± 2.8%
inhibition at 1000 µM [3, 16]: 98 ± 3.6%
inhibition at 2000 µM [3, 16]: 95 ± 5.5%
inhibition at 500 µM [3, 17]: 100 ± 4.9%
inhibition at 1000 µM [3, 17]: 100 ± 5.2%
inhibition at 500 µM [3, 18]: 100 ± 4.9%
inhibition at 1000 µM [3, 18]: 100 ± 5.2%
inhibition at 2000 µM [3, 18]: 97 ± 8.3%
inhibition at 500 µM [3, 19]: 98 ± 2.8%
inhibition at 1000 µM [3, 19]: 98 ± 3.6%
inhibition at 1000 µM [4, 20]: 95 ± 3.5%
inhibition at 2000 µM [4, 20]: 96 ± 6.2%
inhibition at 500 µM [4, 21]: 32 ± 0.4%
inhibition at 1000 µM [4, 21]: 32 ± 1.4%
inhibition at 2000 µM [4, 21]: 32 ± 1.1%
inhibition at 500 µM [4, 22]: 98 ± 6.9%
inhibition at 1000 µM [4, 22]: 97 ± 6.4%
inhibition at 2000 µM [4, 22]: 99 ± 6.3%
inhibition at 500 µM [4, 23]: 29 ± 1.2%
inhibition at 1000 µM [4, 23]: 29 ± 0.2%
inhibition at 2000 µM [4, 23]: 29 ± 0.1%
Uptake of [3H]CQ (% non-expressing oocyte control), trans-stimulation ([5]; [test solute]i = 5 mM): 100 ± 3.2 % non-expressing oocyte control
Uptake of [3H]CQ (% non-expressing oocyte control), trans-stimulation ([5]; [test solute]i = 45 mM (30 mM for some solutes due to solubility)): 98 ± 2.2 % non-expressing oocyte control
Uptake of [3H]CQ (% PfCRTDd2 control), trans-stimulation, non-expressing oocytes ([5]; [test solute]i = 5 mM (intracellular)): 2.7 ± 0.07 % PfCRTDd2 control
Uptake of [3H]CQ (% PfCRTDd2 control), trans-stimulation, non-expressing oocytes ([5]; [test solute]i = 45 mM (intracellular; 30 mM for some solutes due to solubility)): 2.7 ± 0.05 % PfCRTDd2 control
activity at 5000 µM ([6]; PfCRT3D7 oocytes, [test solute]i = 5 mM, total [3H]CQ transport, normalised to the oocyte type control, read-out: Uptake of [3H]CQ (% PfCRT3D7 control), trans-stimulation): 99 ± 3.2%
[3H]CQ transport (% PfCRT3D7 control), trans-stimulation, PfCRT3D7 ([6]; SEM): 0.3 ± 0.01 % PfCRT3D7 control
activity at 5000 µM ([6]; [test solute]i = 5 mM (intracellular), PfCRT3D7 oocytes, normalised to oocyte type control, read-out: PfCRT-mediated [3H]CQ transport, trans-stimulation (% PfCRT3D7 control)): 97 ± 4.6%
activity at 45000 µM ([6]; SEM, read-out: Uptake of [3H]CQ (% PfCRTDd2 control), trans-stimulation, PfCRT3D7): 3.3 ± 0.04%
activity at 45000 µM ([6]; read-out: PfCRT-mediated [3H]CQ transport, trans-stimulation (% PfCRT3D7 control)): 98 ± 1%
activity at 45000 µM ([6]; read-out: Uptake of [3H]CQ (% PfCRT3D7 control), trans-stimulation): 100 ± 2.7%
activity at 5000 µM ([6]; total [3H]CQ transport, [test solute]i = 5 mM (intracellular), mean ± SEM, SEM, read-out: Uptake of [3H]CQ (% PfCRTDd2 control), trans-stimulation, PfCRT3D7): 3.3 ± 0.01%
activity at 5000 µM ([7]; pH 5.5, read-out: PfCRT-mediated [3H]CQ transport, trans-stimulation (% PfCRTDd2 control), [test solute]i = 5 mM (intracellular), PfCRTDd2 oocytes, normalised to oocyte type control): 99 ± 3.4%
activity at 5000 µM ([7]; pH 5.5, read-out: Uptake of [3H]CQ (% PfCRTDd2 control), trans-stimulation, PfCRTDd2, total [3H]CQ transport, [test solute]i = 5 mM (intracellular), mean ± SEM, SEM): 101 ± 2.2%
activity at 5000 µM ([7]; pH 5.5, read-out: Uptake of [3H]CQ (% PfCRTDd2 control), trans-stimulation, PfCRTDd2 oocytes, [test solute]i = 5 mM, total [3H]CQ transport, normalised to the oocyte type control): 101 ± 2.2%
activity at 45000 µM ([7]; pH 5.5, read-out: Uptake of [3H]CQ (% PfCRTDd2 control), trans-stimulation, PfCRTDd2 oocytes, total [3H]CQ transport, normalised to the oocyte type control): 100 ± 2.4%
activity at 5000 µM ([7]; pH 5.5, read-out: [3H]CQ transport (% PfCRTDd2 control), trans-stimulation, PfCRTDd2, trans-stimulation, [test solute]i = 5 mM (injected), PfCRT-mediated component (background subtracted), mean ± SEM, SEM): 99 ± 3.4%
activity at 45000 µM ([7]; pH 5.5, read-out: [3H]CQ transport (% PfCRTDd2 control), trans-stimulation, PfCRTDd2, trans-stimulation, PfCRT-mediated component (background subtracted), mean ± SEM, SEM): 98 ± 3.7%
activity at 5000 µM ([8]; pH 5.5, read-out: PfCRT-mediated [3H]CQ transport, trans-stimulation (% PfCRTEcu1110 control), [test solute]i = 5 mM (intracellular), PfCRTEcu1110 oocytes, normalised to oocyte type control): 97 ± 3.3%
activity at 5000 µM ([8]; pH 5.5, read-out: Uptake of [3H]CQ (% PfCRTEcu1110 control), trans-stimulation, PfCRTEcu1110 oocytes, [test solute]i = 5 mM, total [3H]CQ transport, normalised to the oocyte type control): 99 ± 2.7%
activity at 45000 µM ([8]; pH 5.5, read-out: Uptake of [3H]CQ (% PfCRTEcu1110 control), trans-stimulation, PfCRTEcu1110 oocytes, [test solute]i = 45 mM (30 mM for some solutes due to solubility), total [3H]CQ transport, normalised to the oocyte type control): 99 ± 3.5%
activity at 5000 µM ([8]; read-out: Uptake of [3H]CQ (% PfCRTDd2 control), trans-stimulation, PfCRTEcu1110, total [3H]CQ transport, [test solute]i = 5 mM (intracellular), mean ± SEM, SEM): 35 ± 1.3%
activity at 45000 µM ([8]; read-out: Uptake of [3H]CQ (% PfCRTDd2 control), trans-stimulation, PfCRTEcu1110, total [3H]CQ transport, [test solute]i = 45 mM (intracellular; 30 mM for some solutes due to solubility), mean ± SEM, SEM): 35 ± 2.6%
activity at 5000 µM ([9]; PfNT1 oocytes, [test solute]i = 5 mM, normalised to the oocyte type control, read-out: Uptake of [3H]CQ (% PfNT1 control), trans-stimulation): 99 ± 4.2%
activity at 45000 µM ([9]; SEM, read-out: Uptake of [3H]CQ (% PfCRTDd2 control), trans-stimulation, PfNT1): 2.8 ± 0.02%
activity at 45000 µM ([9]; read-out: Uptake of [3H]CQ (% PfNT1 control), trans-stimulation): 98 ± 3.1%
activity at 5000 µM ([9]; [test solute]i = 5 mM (intracellular), mean ± SEM, SEM, read-out: Uptake of [3H]CQ (% PfCRTDd2 control), trans-stimulation, PfNT1): 3.2 ± 0.02%
Compounds that have been tested as potential co-substrates but are not required for influx of VF-6 via PfCRT into the oocyte [10]: X
Tested as potential co-substrate but not required for influx of VF-6 via PfCRT into the oocyte [11]: X
